Literature values in patent publication EP0081783B2, “Renin inhibitory peptides having Phe 13 deletion” (Merck & Co., Inc., priority 1981, dated 1989).

Test system: hog renin
Conditions: after the injection of hog renin into nephrectomized rats

pepstatin
blood pressure in vivo: reduce blood pressure
